Measured values published in the supplement of paper PMC10307832.

Columns and labels:
Experiment in all cases: relative viability (nuclei count vs DMSO), 5 days (fraction); higher = more cells survive
[1] = tested on: NCI-H1395
Procedure, shortened: (§1)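 Nuclei were stained with Hoechst during a one-step fixation (final 0.05% Triton X-100, 1% formaldehyde, 1 ug/ml Hoechst) carried out 5 days after dosing, then counted on 4× images. The cells, lung cancer lines in 1536-well plates, had been dosed by pin tool the day after seeding with one drug alone or a fixed anchor-drug dose plus five library-drug doses (not always all listed) in √10 steps. Relative viability is the nuclei count in treated wells divided by that in vehicle wells, and each value is the median of duplicate plates.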

[2] = tested on: ChaGo-K-1
Procedure, shortened: as §1

[3] = tested on: NCI-H1993
Procedure, shortened: as §1

[4] = tested on: NCI-H2405
Procedure, shortened: as §1

[5] = tested on: EMC-BAC-2
Procedure, shortened: as §1

[6] = tested on: NCI-H1793
Procedure, shortened: as §1

[7] = tested on: NCI-H23
Procedure, shortened: as §1

[8] = tested on: HCC-15
Procedure, shortened: as §1

[9] = tested on: LC-2-ad
Procedure, shortened: as §1

[10] = tested on: NCI-H358
Procedure, shortened: as §1

[11] = tested on: HCC-366
Procedure, shortened: as §1

[12] = tested on: NCI-H1944
Procedure, shortened: as §1

[13] = tested on: HOP-62
Procedure, shortened: as §1

[14] = tested on: NCI-H2228
Procedure, shortened: as §1

[15] = tested on: HCC-78
Procedure, shortened: as §1

[16] = tested on: HARA
Procedure, shortened: as §1

[17] = tested on: COR-L23
Procedure, shortened: as §1

[18] = tested on: NCI-H2023
Procedure, shortened: as §1

[19] = tested on: NCI-H2126
Procedure, shortened: as §1

[20] = tested on: ABC-1
Procedure, shortened: as §1

[21] = tested on: SK-LU-1
Procedure, shortened: as §1

[22] = tested on: NCI-H838
Procedure, shortened: as §1

For `COc1cc2nccc(Oc3ccc(NC(=O)Nc4cc(C)on4)c(Cl)c3)c2cc1OC` [Tivozanib] + COc1cccc2cc(-c3nc([C@H]4CC[C@H](C(=O)O)CC4)n4ncnc(N)c34)[nH]c12 [OSI-027] (partner 0.5 µM), the relative viability ([1]; first compound 0.005 µM) was 0.52, the relative viability ([1]; first compound 0.01581 µM) was 0.635 and the relative viability ([1]; first compound 0.05 µM) was 0.648. For the same molecule, the relative viability ([1]; first compound 0.1581 µM) was 0.546, the relative viability ([1]; first compound 0.5 µM) was 0.528 and the relative viability ([2]; first compound 0.005 µM) was 0.601. The relative viability ([2]; first compound 0.01581 µM) was 0.555, the relative viability ([2]; first compound 0.05 µM) was 0.605 and the relative viability ([2]; first compound 0.1581 µM) was 0.552. It also gave a relative viability ([2]; first compound 0.5 µM) of 0.432, a relative viability ([3]; first compound 0.005 µM) of 0.503 and a relative viability ([3]; first compound 0.01581 µM) of 0.534. It also gave a relative viability ([3]; first compound 0.05 µM) of 0.543, a relative viability ([3]; first compound 0.1581 µM) of 0.518 and a relative viability ([3]; first compound 0.5 µM) of 0.429. It also gave a relative viability ([4]; first compound 0.005 µM) of 0.631, a relative viability ([4]; first compound 0.01581 µM) of 0.716 and a relative viability ([4]; first compound 0.05 µM) of 0.684. The relative viability ([4]; first compound 0.1581 µM) was 0.526, the relative viability ([4]; first compound 0.5 µM) was 0.577 and the relative viability ([5]; first compound 0.005 µM) was 0.372. For the same molecule, the relative viability ([5]; first compound 0.01581 µM) was 0.385, the relative viability ([5]; first compound 0.05 µM) was 0.38 and the relative viability ([5]; first compound 0.1581 µM) was 0.279. The relative viability ([5]; first compound 0.5 µM) was 0.334, the relative viability ([6]; first compound 0.005 µM) was 0.225 and the relative viability ([6]; first compound 0.01581 µM) was 0.219. For the same molecule, the relative viability ([6]; first compound 0.05 µM) was 0.344, the relative viability ([6]; first compound 0.1581 µM) was 0.249 and the relative viability ([6]; first compound 0.5 µM) was 0.235. For the same molecule, the relative viability ([7]; first compound 0.005 µM) was 0.578, the relative viability ([7]; first compound 0.01581 µM) was 0.595 and the relative viability ([7]; first compound 0.05 µM) was 0.671. For the same molecule, the relative viability ([7]; first compound 0.1581 µM) was 0.355, the relative viability ([7]; first compound 0.5 µM) was 0.367 and the relative viability ([8]; first compound 0.005 µM) was 0.547. For the same molecule, the relative viability ([8]; first compound 0.01581 µM) was 0.672, the relative viability ([8]; first compound 0.05 µM) was 0.711 and the relative viability ([8]; first compound 0.1581 µM) was 0.571. The relative viability ([8]; first compound 0.5 µM) was 0.61, the relative viability ([9]; first compound 0.005 µM) was 0.784 and the relative viability ([9]; first compound 0.01581 µM) was 0.834. For the same molecule, the relative viability ([9]; first compound 0.05 µM) was 0.812, the relative viability ([9]; first compound 0.1581 µM) was 0.71 and the relative viability ([9]; first compound 0.5 µM) was 0.512. For the same molecule, the relative viability ([10]; first compound 0.005 µM) was 0.751, the relative viability ([10]; first compound 0.01581 µM) was 0.776 and the relative viability ([10]; first compound 0.05 µM) was 0.674. For the same molecule, the relative viability ([10]; first compound 0.1581 µM) was 0.332, the relative viability ([10]; first compound 0.5 µM) was 0.727 and the relative viability ([11]; first compound 0.005 µM) was 0.839. For the same molecule, the relative viability ([11]; first compound 0.01581 µM) was 0.849, the relative viability ([11]; first compound 0.05 µM) was 1.02 and the relative viability ([11]; first compound 0.1581 µM) was 0.707. It also gave a relative viability ([11]; first compound 0.5 µM) of 0.57, a relative viability ([12]; first compound 0.005 µM) of 0.396 and a relative viability ([12]; first compound 0.01581 µM) of 0.431. The relative viability ([12]; first compound 0.05 µM) was 0.449, the relative viability ([12]; first compound 0.1581 µM) was 0.344 and the relative viability ([12]; first compound 0.5 µM) was 0.447. The relative viability ([13]; first compound 0.005 µM) was 0.838, the relative viability ([13]; first compound 0.01581 µM) was 0.829 and the relative viability ([13]; first compound 0.05 µM) was 0.798. It also gave a relative viability ([13]; first compound 0.1581 µM) of 0.587, a relative viability ([13]; first compound 0.5 µM) of 0.817 and a relative viability ([14]; first compound 0.005 µM) of 0.492. The relative viability ([14]; first compound 0.01581 µM) was 0.54, the relative viability ([14]; first compound 0.05 µM) was 0.615 and the relative viability ([14]; first compound 0.1581 µM) was 0.488. It also gave a relative viability ([14]; first compound 0.5 µM) of 0.485, a relative viability ([15]; first compound 0.005 µM) of 0.326 and a relative viability ([15]; first compound 0.01581 µM) of 0.369. For the same molecule, the relative viability ([15]; first compound 0.05 µM) was 0.386, the relative viability ([15]; first compound 0.1581 µM) was 0.31 and the relative viability ([15]; first compound 0.5 µM) was 0.316. For the same molecule, the relative viability ([16]; first compound 0.005 µM) was 0.549, the relative viability ([16]; first compound 0.01581 µM) was 0.481 and the relative viability ([16]; first compound 0.05 µM) was 0.65. For the same molecule, the relative viability ([16]; first compound 0.1581 µM) was 0.196, the relative viability ([16]; first compound 0.5 µM) was 0.28 and the relative viability ([17]; first compound 0.005 µM) was 0.74. It also gave a relative viability ([17]; first compound 0.01581 µM) of 0.715, a relative viability ([17]; first compound 0.05 µM) of 0.799 and a relative viability ([17]; first compound 0.1581 µM) of 0.617. The relative viability ([17]; first compound 0.5 µM) was 0.647, the relative viability ([18]; first compound 0.005 µM) was 0.393 and the relative viability ([18]; first compound 0.01581 µM) was 0.386. It also gave a relative viability ([18]; first compound 0.05 µM) of 0.381, a relative viability ([18]; first compound 0.1581 µM) of 0.272 and a relative viability ([18]; first compound 0.5 µM) of 0.324. The relative viability ([19]; first compound 0.005 µM) was 0.655, the relative viability ([19]; first compound 0.01581 µM) was 0.701 and the relative viability ([19]; first compound 0.05 µM) was 0.776. For the same molecule, the relative viability ([19]; first compound 0.5 µM) was 0.691, the relative viability ([20]; first compound 0.005 µM) was 0.456 and the relative viability ([20]; first compound 0.01581 µM) was 0.509. For the same molecule, the relative viability ([20]; first compound 0.05 µM) was 0.462, the relative viability ([20]; first compound 0.1581 µM) was 0.359 and the relative viability ([20]; first compound 0.5 µM) was 0.395. For the same molecule, the relative viability ([21]; first compound 0.005 µM) was 0.343, the relative viability ([21]; first compound 0.01581 µM) was 0.314 and the relative viability ([21]; first compound 0.05 µM) was 0.383. It also gave a relative viability ([21]; first compound 0.1581 µM) of 0.24, a relative viability ([21]; first compound 0.5 µM) of 0.338 and a relative viability ([22]; first compound 0.005 µM) of 0.364. It also gave a relative viability ([22]; first compound 0.01581 µM) of 0.404, a relative viability ([22]; first compound 0.05 µM) of 0.357 and a relative viability ([22]; first compound 0.5 µM) of 0.38.
